One data set concerns S. aureus USA300 LAC. The format is cell-based. In short, it runs like this:
(§1)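 Broth microdilution after CLSI M07-A10, modified: 2-fold peptide dilutions plus log-phase bacteria diluted to 0.001 OD, incubated overnight at 37° C, absorbance read at 630 nm. Medium effects probed with varied pH, NaCl or human serum in TSB (control pH 7.4), with 10%, 50%, 100% TSB, and with MHB.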

The next data set relates to E. coli ATCC 25922. The format is cell-based. In short, it runs like this: as §1
Data set [1] deals with Klebsiella pneumonia ATCC 13883. Description: Antibacterial broth microdilution MIC. The data set is classed as cell-based. In short, it runs like this: (§2)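 Broth microdilution per CLSI M07-A10 with minor changes: 2-fold peptide dilutions plus log-phase bacteria (OD600 ~0.5) diluted to 0.001 OD, in TSB. Incubated overnight at 37 °C; growth read at 630 nm.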
The subject of data set [2] is human red blood cells (hRBCs). The data set is classed as cell-based. In short, it runs like this: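 Saline-washed human erythrocytes at 2% (v/v) incubated with peptides at various concentrations, 37° C, 1 hour. Haemoglobin release read at 545 nm in supernatant after centrifugation; 1% Triton X-100 = 100% lysis, PBS = 0%. HC50 is the peptide concentration giving 50% lysis; CSI = HC50/MIC against MRSA.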

For a further data set, the system named is S. aureus USA400. The data set is classed as cell-based. In short, it runs like this:
as §2

The subject of a further data set is S. aureus USA200. The format is cell-based. In short, it runs like this:
as §2

A further data set relates to S. aureus Newman. The data set is classed as cell-based. In short, it runs like this: as §2
The test system of the next data set is S. aureus Mu50. The data set is classed as cell-based. In short, it runs like this: as §2
Data set [3] concerns trypsin, chymotrypsin, pancreas elastase, S. aureus V8 protease, and fungal proteinase K.
Method: The peptide was incubated with various proteases in 10 mM PBS buffer (pH 7.4) at 37° C. for 24 hours. Aliquots (20 μL) of the reaction solutions were taken at 3 and 24 hours. The reaction was then stopped by mixing with 20 μL of 2×SDS loading buffer and boiling in a water bath for ˜10 minutes. For the SDS-PAGE analysis, 10 μL of each sample was loaded to the well of a 5% stacking/18% resolving tricine gel and run at a constant current of 35 mA. The gels were stained using Coomassie Brilliant Blue.

Values after ≈ are worked out from the molar mass of the structure shown. Read-outs that look alike come from different tables or passages of the source. Non-standard residues stand in square brackets, D forms with d. Residues, ends and D or L forms follow the SMILES beside them. *: point of attachment. Decanoyl = CCCCCCCCCC(=O)*

For orientation: HC50 means the concentration that lyses half of the red blood cells. A low value points to stronger haemolysis.

With `CCCCCCCCCC(=O)N[C@@H](CCCCN)C(=O)N[C@@H](CCCNC(=N)N)C(=O)N[C@H](C(=O)N[C@@H](Cc1c[nH]c2ccccc12)C(=O)N[C@@H](CCC(N)=O)C(=O)N[C@@H](CCCNC(=N)N)C(=O)N[C@H](C(=O)N[C@@H](CCCCN)C(N)=O)[C@@H](C)CC)[C@@H](C)CC` [Peptide C10-KR8] (Decanoyl-KRIWQRIK-NH2), in the data set with S. aureus USA300 LAC (5 or 10% human serum), the MIC in the presence of 5 or 10% human serum is over 25 µM. For the same molecule, the “MIC (μM) SA” value with S. aureus USA300 LAC (USA300) fell in the range of 1.5 to 3.1 µM. Besides, the “Minimal inhibitory concentration (MIC), pH = 6.8” value in the data set with S. aureus USA300 LAC (USA300, pH 6.8) was 3.1-6.2 μM. In addition, the “MIC (μM) EC” value against E. coli ATCC 25922 was found to be 12.5 µM (≈ 16 µg/mL). Besides, the “MIC (μM) KP” value in [1] was found to be 50 µM (≈ 64 µg/mL). In data set [2], the concentration for 50% haemolysis (HC50) came out at 300 µM. Further, the “Minimal inhibitory concentration, USA400” value in the data set on S. aureus USA400 worked out at 3.1 µM (≈ 3.97 µg/mL). In the data set on S. aureus USA200, the “Minimal inhibitory concentration, USA200” value came out at 3.1 µM (≈ 3.97 µg/mL). Also, in the data set on S. aureus Newman, the “Minimal inhibitory concentration, Newman” value was determined as 3.1 µM (≈ 3.97 µg/mL). Also, in the data set with S. aureus Mu50, the “Minimal inhibitory concentration, Mu50” value was 3.1 µM (≈ 3.97 µg/mL). Besides, the “time to degradation by proteases” value in data set [3] (nearly all the cases, except for S. aureus V8 protease, 37° C., PBS pH 7.4) is at most 3 h.
Turning to `CCCCCCCCCC(=O)N[C@H](CCCCN)C(=O)N[C@H](CCCNC(=N)N)C(=O)N[C@@H](C(=O)N[C@H](Cc1c[nH]c2ccccc12)C(=O)N[C@H](CCC(N)=O)C(=O)N[C@H](CCCNC(=N)N)C(=O)N[C@@H](C(=O)N[C@H](CCCCN)C(N)=O)[C@H](C)CC)[C@H](C)CC` [Peptide C10-KR8d] (Decanoyl-[dK][dR][dI][dW][dQ][dR][dI][dK]-NH2), the “reduction of anti-MRSA activity” value in the data set with S. aureus USA300 LAC (10% serum, pH 7.4) is reported as 2 fold. Moreover, in the data set with S. aureus USA300 LAC (USA300), the “MIC (μM) SA” value lay in the range of 1.5 to 3.1 µM and the “MIC values (Table 4, text summary)” value fell in the range of 3.1 to 6.2 µM. Besides, in the data set on E. coli ATCC 25922, the “MIC (μM) EC” value was 12.5 µM (≈ 16 µg/mL) and the “Minimal inhibitory concentration against E. coli, 100% TSB” value was 6.2 µM (≈ 7.94 µg/mL). Moreover, the “MIC (μM) KP” value in [1] stood at 25 µM (≈ 32 µg/mL). Besides, the “HC50” value in [2] (red cells of human, 1 h) amounted to 300 µM. For the same molecule, in the data set on S. aureus USA400, the “Minimal inhibitory concentration, USA400” value stood at 1.6 µM (≈ 2.05 µg/mL). Moreover, in the data set with S. aureus USA200, the “Minimal inhibitory concentration, USA200” value was 1.6 µM (≈ 2.05 µg/mL). In addition, the “Minimal inhibitory concentration, Newman” value with S. aureus Newman is 1.6 µM (≈ 2.05 µg/mL). The “Minimal inhibitory concentration, Mu50” value with S. aureus Mu50 was 3.1 µM (≈ 3.97 µg/mL). Further, in [3] (trypsin, chymotrypsin, pancreas elastase, S. aureus V8 protease, fungal proteinase K, 3 and 24 hours), the “stability to five proteases” value is “resistant to the five proteases”.

The values above are taken from patent publication US20240294572A1, “Antimicrobial Peptides” (priority 2021, published 2024).
